Reference: the supplement of paper PMC6045584

Experiments:
Assay in all cases: area under dose-response curve of surviving fraction (unscaled, Aref=0) (surviving fraction x log10(nM)); higher = more resistant
Conditions in all cases: exposure time: 5 days; dose range 0.5-1000 nM
[1] = compound: CNC(=O)c1cc(Oc2ccc(NC(=O)Nc3ccc(Cl)c(C(F)(F)F)c3)cc2)ccn1 [SORAFENIB]
Procedure, shortened: (§1)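 Three screens per tumour cell line were run in 384-well plates at eight inhibitor concentrations from 0.5 to 1000 nM over five days. Surviving fractions, from CellTiter-Glo luminescence normalised to DMSO-only wells, were fitted with 3-parameter logistic curves in the drc R package. The reported area under the curve is the unscaled activity area. It spans log10 dose, and Aref is 0.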

[2] = compound: COc1cc2c(Oc3ccc(NC(=O)C4(C(=O)Nc5ccc(F)cc5)CC4)cc3F)ccnc2cc1OCCCN1CCOCC1 [FORETINIB]
Procedure, shortened: as §1

[3] = compound: C[C@@H](Oc1cc(-c2cnn(C3CCNCC3)c2)cnc1N)c1c(Cl)ccc(F)c1Cl [CRIZOTINIB]
Procedure, shortened: as §1

[4] = compound: C[C@@H](Oc1cc(-c2cnn(C3CCNCC3)c2)cnc1N)c1c(Cl)ccc(F)c1Cl
Procedure, shortened: as §1

[5] = compound: Cn1nnc2c(C(N)=O)ncn2c1=O [TEMOZOLOMIDE]
Procedure, shortened: as §1

[6] = compound: NS(=O)(=O)OC[C@@H]1C[C@@H](n2ccc3c(N[C@H]4CCc5ccccc54)ncnc32)C[C@@H]1O [MLN-4924]
Procedure, shortened: as §1

[7] = compound: O=C(c1cc(Cc2n[nH]c(=O)c3ccccc23)ccc1F)N1CCN(C(=O)C2CC2)CC1 [OLAPARIB]
Procedure, shortened: as §1

[8] = compound: Oc1nc(-c2ccc(C(F)(F)F)cc2)nc2c1CSCC2 [XAV-939]
Procedure, shortened: as §1

[9] = compound: COc1cc2ncnc(Nc3ccc(F)c(Cl)c3)c2cc1NC(=O)/C=C/CN1CCCCC1
Procedure, shortened: as §1

[10] = compound: Cc1nc(Nc2ncc(C(=O)Nc3c(C)cccc3Cl)s2)cc(N2CCN(CCO)CC2)n1 [DASATINIB]
Procedure, shortened: as §1

Test System | area under dose-response curve [1] | area under dose-response curve [2] | area under dose-response curve [3] | area under dose-response curve [4] | area under dose-response curve [5] | area under dose-response curve [6] | area under dose-response curve [7] | area under dose-response curve [8] | area under dose-response curve [9] | area under dose-response curve [10]
22RV1 PROSTATE | 3.42 | 3.05 | 3.17 | 3 | 3.54 | 2.3 | 3.41 | 3.34 |  | 
93VU HEADNECK | 3.6 | 3.15 | 3.62 | 3.15 | 3.5 | 2.42 |  | 3.51 | 1.8 | 1.68
A549 LUNG | 3.44 | 3.13 | 3.27 | 3.25 | 3.43 | 3.14 | 3.48 | 3.48 | 3.32 | 2.72
ASKA SYNOVIAL | 3.67 | 2.97 | 2.02 | 1.91 | 3.76 | 2.57 |  | 3.73 |  | 3.09
BT549 BREAST | 3.65 | 3.09 | 3.2 | 3.16 | 3.71 | 2.41 | 2.76 |  | 3.07 | 1.74
C33A CERVIX | 3.69 | 3.09 | 3.26 | 3.07 | 3.18 | 2.13 |  | 3.08 | 2.14 | 1.29
CADOES1 SOFT TISSUE | 2.92 | 2.56 | 3.05 | 2.94 | 3.11 | 2.57 | 3.04 | 2.98 | 3 | 3.34
CAL51 BREAST | 3.36 | 2.75 | 2.87 | 2.77 | 3.41 | 2.56 | 2.99 | 3.24 | 3.29 | 1.95
CAL120 BREAST | 3.19 | 3.06 | 3.24 | 2.89 | 3.22 | 2.22 | 2.89 | 3.24 | 3.14 | 1.98
CASKI CERVIX |  | 2.87 | 2.83 | 2.58 | 3.19 | 2.18 | 2.98 | 3.25 | 1.19 | 1.2
CHLA90 AUTONOMIC GANGLIA | 3.78 | 3 | 3.12 | 2.61 | 3.2 |  |  | 3.24 | 2.74 | 2.41
COLO320DM LARGE INTESTINE | 3.67 | 3.16 | 3.21 | 3.01 | 3.45 | 3.14 | 3.46 | 3.19 | 3.2 | 3.52
H23 LUNG | 3.89 | 3.19 | 3.48 | 3.24 | 3.33 | 2.48 | 3.67 | 2.94 | 1.51 | 2.14
HCC78 LUNG | 3.05 | 1.78 | 2.26 | 2.08 | 2.97 | 1.64 | 3.38 | 2.69 | 2.51 | 1.88
HCT15 LARGE INTESTINE | 3.39 | 2.87 | 3.26 | 3.17 | 3.41 | 2.78 |  | 3.27 |  | 2.15
HELA CERVIX | 3.38 | 3.06 | 3.42 | 3.13 | 3.6 | 3.35 | 3.66 | 3.57 | 3.73 | 3.16
HOS BONE | 3.42 | 3.06 | 3.13 | 3.05 | 3.42 | 2.11 | 3.37 | 3.4 | 3.27 | 2.29
HOSMNG BONE |  | 2.05 | 2.38 | 2.33 | 3 | 3.01 | 3.29 | 3.14 | 3.18 | 2.21
HSSYII SYNOVIAL | 3.17 | 2.59 | 2.85 | 2.49 | 3.23 | 1.85 | 2.67 | 3.04 | 3 | 2.17
HT1080 SOFT TISSUE | 3.4 | 3.13 | 3.28 | 3.25 | 3.41 | 2.52 | 2.92 | 2.94 | 3.22 | 2.37
HU09 BONE | 2.68 | 2.28 | 3.03 | 2.79 | 3.28 | 2.59 |  |  | 3.08 | 1.76
JIMT1 BREAST | 3.34 | 3.01 | 3.18 | 3.01 | 3.4 | 3.19 | 3.01 | 3.26 | 2.5 | 1.66
JURKAT HAEMATOPOIETIC AND LYMPHOID TISSUE | 3.55 | 3.02 | 2.68 | 2.75 |  | 1.92 |  | 3.29 | 3.18 | 2.79

Test System | area under dose-response curve [1] | area under dose-response curve [2] | area under dose-response curve [3] | area under dose-response curve [4] | area under dose-response curve [5] | area under dose-response curve [6] | area under dose-response curve [7] | area under dose-response curve [8] | area under dose-response curve [9] | area under dose-response curve [10]
KPD BONE | 3.2 | 3.08 | 3.08 | 2.95 | 3.35 | 2.61 | 3.12 | 3.17 | 3.13 | 2.1
LM7 BONE | 3.39 | 3.1 | 3.05 | 2.6 | 3.38 | 2.09 | 2.84 | 3.45 | 2.98 | 1.58
LNCAP PROSTATE |  | 2.93 | 2.91 | 2.82 | 3.08 | 1.35 | 3.27 | 2.79 | 2.92 | 2.62
MCF7 BREAST | 2.97 | 2.96 | 3.04 | 2.71 | 3.08 | 2.24 | 3.07 | 3.19 | 3.16 | 2.56
MDAMB157 BREAST |  | 2.94 | 3.17 | 2.84 | 3.27 | 2.69 | 3.21 | 3.08 | 3.08 | 1.89
MDAMB231 BREAST | 3.13 | 2.91 | 2.93 | 2.81 | 3.27 | 2.4 | 3.09 | 2.95 | 3.08 | 1.44
MDAMB361 BREAST | 2.79 | 2.98 | 2.86 | 2.88 | 3.06 | 2.48 | 2.26 | 3.04 | 2.58 | 2.45
MDAMB436 BREAST | 3.22 | 3.16 | 3.4 | 2.84 | 3.32 | 2.24 | 2.31 | 3.05 | 3.06 | 2.65
MFM223 BREAST | 3.79 | 3.08 | 3.69 | 2.92 | 4.05 | 2.82 | 2.99 | 3.24 | 3.27 | 2.52
MHM BONE | 3.47 | 3.2 | 3.27 | 3.21 | 3.31 |  | 3.42 | 3.28 | 3.28 | 2.44
NOS1 BONE | 3.01 | 2.58 | 3.87 | 3.13 | 3.67 |  | 2.8 |  | 2.84 | 1.42
OS25HAL BONE | 3.2 | 2.85 | 3.21 | 3.14 | 3.52 | 2.39 | 3.36 | 3.23 | 3.34 | 2.28
OSHN BONE | 3.51 | 3.09 | 3.28 | 3.17 | 3.58 | 2.48 | 3.28 | 3.53 | 3.52 | 2.81
S68 BREAST | 3.49 | 2.65 | 2.72 | 2.76 | 3.53 | 2.21 | 2.85 | 3.19 | 2.49 | 1.44
SG27 HEADNECK | 3.79 | 3.23 | 3.57 | 3.15 | 3.68 | 2.95 | 3.27 |  | 3.28 | 2.16
SG43 HEADNECK | 4.26 | 2.45 | 2.8 | 2.88 | 2.97 |  | 3.28 | 2.88 | 1.38 | 1.64
SNU475 LIVER | 3.6 | 3.18 | 3.26 | 2.77 | 3.4 | 3.13 | 3.11 | 3.07 | 2.94 | 1.64
SUM149 BREAST | 3.9 | 2.82 | 3.15 | 2.99 | 3.57 | 2.38 | 2.46 | 2.66 | 2.13 | 1.49
SYO1 SYNOVIAL | 3.06 | 2.43 | 2.71 | 2.44 | 3.18 | 2.1 | 2.48 | 3.01 | 3.02 | 1.7
T47D BREAST | 3.6 | 3.43 | 3.51 | 3.15 | 3.49 | 2.34 | 3.11 | 3.54 | 3.49 | 3.08
U2OS BONE | 3.5 | 3 | 3.06 | 2.88 | 3.39 | 2.83 | 3.26 | 3.25 | 3.24 | 2.63
VCAP PROSTATE | 3.73 | 3.06 | 3.04 | 2.88 | 3.44 | 2.21 | 3.59 | 3.13 | 3.12 | 3.15
YAMATO SYNOVIAL | 4.27 | 2.34 | 2.3 | 1.83 | 4.22 |  |  | 4.04 | 4.37 | 2.5
